From patent publication US6465491B2, “6-phenylpyridyl-2-amine derivatives” (Pfizer Inc., priority 1996, dated 2002)
Structures can show the parent of a compound that is named as a salt.

Row | melting point | Structure (SMILES)
1 | 170 °C (dec.) | Nc1cccc(-c2ccc(CCNC3CC4COCC(C3)N4)cc2)n1 (centres unmarked) (as salt: hydrochloride) [107]
2 | 158 to 161 °C | Nc1cccc(-c2ccc(CCN3CCN(c4nc(-c5ccccc5)cs4)CC3)cc2)n1 [Example 15, 6-(4-{2-[4-(4-Phenyl-thiazol-2-yl)-piperazin-1-yl]-ethyl}-phenyl)-pyridin-2-ylamine]
3 | 198 °C (dec.) | Nc1cccc(-c2ccc(CCNC3CC4CCC(C3)N4Cc3ccc(Cl)cc3)cc2)n1 (centres unmarked) (as salt: hydrochloride)
4 | 130 to 132 °C | Nc1cccc(-c2ccc(CCN3CCc4ccccc4C3)cc2)n1 [Example 6, 6-{4-[2-(3,4-Dihydro-1H-isoquinolin-2-yl)-ethyl]-phenyl}-pyridin-2-ylamine]
5 | 212 to 215 °C | Nc1cccc(-c2ccc(CCNCCc3ccccc3)cc2)n1 (as salt: hydrochloride) [Example 35, 6-[4-(2-Phenethylamino-ethyl)-phenyl]-pyridin-2-ylamine]
6 | 161 to 163 °C | Nc1cccc(-c2ccc(CCN3CC4C(C3)C4NC(=O)Cc3ccc(F)cc3)cc2)n1 (centres unmarked) [Example 38, N-(3-{2-[4-(6-Amino-pyridin-2-yl)-phenyl]-ethyl}-3-aza-bicyclo[3.1.0]hex-6-yl)-2-(4-fluoro-phenyl)-acetamide]
7 | 190 °C (dec.) | Nc1cccc(-c2ccc(CCNC3CC4CCC(C3)N4Cc3ccc(F)cc3)cc2)n1 (centres unmarked) (as salt: hydrochloride)
8 | 170 °C (dec.) | Nc1cccc(-c2ccc(CCN3CCC(NC(=O)Cc4ccc(F)cc4)CC3)cc2)n1 (as salt: hydrochloride) [Example 65, N-(1-{2-[4-(6-Amino-pyridin-2-yl)-phenyl]-ethyl}-piperidin-4-yl)-2-(4-fluoro-phenyl)-acetamide]
9 | 185 to 187 °C | Nc1cccc(-c2ccc(CNC3Cc4ccccc4C3)cc2)n1 (as salt: hydrochloride) [Example 139, 6-[4-(Indan-2-ylaminomethyl)-phenyl]-pyridin-2-ylamine]
10 | 180 to 182 °C | Nc1cccc(-c2ccc(CCN3CCN(C(=O)NC4CCCCC4)CC3)cc2)n1 [Example 32, 4-{2-[4-(6-Amino-pyridin-2-yl)-phenyl]-ethyl}-piperazine-1-carboxylic acid cyclohexylamide]
11 | 172 to 181 °C | Nc1cccc(-c2ccc(CCN3CCN(C(=O)NCc4ccccc4)CC3)cc2)n1 [Example 47, 4-{2-[4-(6-Amino-pyridin-2-yl)-phenyl]-ethyl}-piperazine-1-carboxylic acid benzylamide]
12 | 170 °C (dec.) | Nc1cccc(-c2ccc(CCNC3CC4CCC(C3)N4)cc2)n1 (centres unmarked) (as salt: hydrochloride)
13 | 260 °C (dec.) | Nc1cccc(-c2ccc(CCNC3CC4CCC(C3)N4Cc3ccccc3)cc2)n1 (centres unmarked) (as salt: hydrochloride)
14 | 110 °C (dec.) | Nc1cccc(-c2ccc(CCN3Cc4ccccc4CC3C(=O)O)cc2)n1 (centres unmarked) (as salt: hydrochloride) [Example 28, 2-{2-[4-(6-Amino-pyridin-2-yl)-phenyl]ethyl}-1,2,3,4-tetrahydro-isoquinoline-3-carboxylic acid]
15 | 201 to 203 °C | CC(=O)N1CCN(CCc2ccc(-c3cccc(N)n3)cc2)CC1 [Example 10, 1-(4-{2-[4-(6-Amino-pyridin-2-yl)-phenyl]-ethyl}-piperazin-1-yl)-ethanone]
16 | 242 to 250 °C | Cc1cc(N)nc(-c2ccc(CCN3CCN(CCc4ccccc4)CC3)cc2)c1 (as salt: hydrochloride) [Example 128, 6-{4-[2-(4-Phenethyl-piperazin-1-yl)-ethyl]-phenyl}-4-methyl-pyridin-2-ylamine]
17 | 182 to 184 °C | COc1ccc(NC(=O)N2CCN(CCc3ccc(-c4cccc(N)n4)cc3)CC2)cc1 [Example 31, 4-{2-[4-(6-Amino-pyridin-2-yl)-phenyl]-ethyl}-piperazine-1-carboxylic acid (4-methoxy-phenyl)-amide]
18 | 192 to 194 °C | Nc1cccc(-c2ccc(CCN3CC4C(C3)C4NC(=O)Nc3ccccc3)cc2)n1 (centres unmarked) [Example 36, 1-(3-{2-[4-(6-Amino-pyridin-2-yl)-phenyl]-ethyl}-3-aza-bicyclo[3.1.0]hex-6-yl)-3-phenyl-urea]
19 | 258 to 264 °C | Nc1cccc(-c2ccc(CCN3CCN(CCCc4ccccc4)CC3)cc2)n1 (as salt: hydrochloride) [Example 40, 6-(4-{2-[4-(3-Phenyl-propyl)-piperazin-1-yl]-ethyl}-phenyl)-pyridin-2-ylamine]
20 | 190 °C (dec.) | Nc1cccc(-c2ccc(CCN3CCC4(CC3)NC(=O)N(Cc3ccccc3)C4=O)cc2)n1 (as salt: hydrochloride) [Example 43, 8-{2-[4-(6-Amino-pyridin-2-yl)-phenyl]-ethyl}-3-benzyl-1,3,8-triaza-spiro[4.5]decane-2,4-dione]
21 | 75 to 85 °C | Nc1cccc(-c2ccc(CCN(CC3CCCCC3)CC3CCCCC3)cc2)n1 (as salt: salt) [Example 124, 6-{4-[2-(Bis-cyclohexylmethyl-amino)-ethyl]-phenyl}-pyridin-2-ylamine]

Row | melting point | Structure (SMILES)
22 | 190 °C (dec.) | Nc1cccc(-c2ccc(CCNC3C4CCCC3CN(Cc3ccccc3)C4)cc2)n1 (centres unmarked) (as salt: hydrochloride) [Example 84, {2-[4-(6-Amino-pyridin-2-yl)-phenyl]-ethyl}-(3-benzyl-3-aza-bicyclo[3.3.1]non-9-yl)-amine]
23 | 215 to 219 °C (dec.) | Nc1cccc(-c2ccc(CCN3CCC(N)(C(=O)NCCc4ccccc4)CC3)cc2)n1 (as salt: hydrochloride) [Example 79, 4-Amino-1-{2-[4-(6-amino-pyridin-2-yl)-phenyl]-ethyl}-piperidine-4-carboxylic acid phenethyl-amide]
24 | 165 °C (dec.) | Nc1cccc(-c2ccc(CCN3CC4C(C3)C4NCCc3ccccc3)cc2)n1 (centres unmarked) (as salt: hydrochloride) [Example 46, (3-{2-[4-(6-Amino-pyridin-2-yl)-phenyl]-ethyl}-3-aza-bicyclo[3.1.0]hex-6-yl)-phenethyl-amine]
25 | 170 °C (dec.) | Nc1cccc(-c2ccc(CCNC3CC4CCC(C3)N4C(=O)Cc3ccc(F)cc3)cc2)n1 (centres unmarked) (as salt: hydrochloride)
26 | 163 to 165 °C | CC(C)NC(=O)CN1CCN(CCc2ccc(-c3cccc(N)n3)cc2)CC1 [Example 23, 2-(4-{2-[4-(6-Amino-pyridin-2-yl)-phenyl]-ethyl}-piperazin-1-yl)-N-isopropyl-acetamide]
27 | 140 to 143 °C | Nc1cccc(-c2ccc(CCN3Cc4ccccc4C3)cc2)n1 [Example 22, 6-{4-[2-(1,3-Dihydro-isoindol-2-yl)-ethyl]-phenyl}-pyridin-2-ylamine]
28 | 150 to 163 °C (dec.) | Nc1cccc(-c2ccc(CCN(Cc3ccncc3)Cc3ccncc3)cc2)n1 (as salt: hydrochloride) [Example 120, 6-{4-[2-(Bis-pyridin-4-ylmethyl-amino)-ethyl]-phenyl}-pyridin-2-ylamine]
29 | 175 °C (dec.) | Nc1cccc(-c2ccc(CCN3CCC(C(c4ccccc4)c4ccccc4)CC3)cc2)n1 (as salt: hydrochloride) [Example 90, 6-{4-[2-(4-Benzhydryl-piperidin-1-yl)-ethyl]-phenyl}-pyridin-2-ylamine]
30 | 127 to 130 °C | Nc1cccc(-c2ccc(CCN3CCN(C(=O)COc4ccccc4)CC3)cc2)n1
31 | > 300 °C | Nc1cccc(-c2ccc(CCN3C4CCC3CC(N)C4)cc2)n1 (centres unmarked) (as salt: hydrochloride)
32 | > 220 °C | Nc1cccc(-c2ccc(CCN3CCN(C4CCc5ccccc5C4)CC3)cc2)n1 (centres unmarked) (as salt: hydrochloride) [Example 55, 6-(4-{2-[4-(1,2,3,4-Tetrahydro-naphthalen-2-yl)-piperazin-1-yl]-ethyl}-phenyl)-pyridin-2-ylamine]
33 | 190 to 195 °C | Nc1cccc(-c2ccc(CCN3CCC(N)CC3)cc2)n1 (as salt: trifluoroacetate) [Example 67, 6-{4-[2-(4-Amino-piperidin-1-yl)-ethyl]-phenyl}-pyridin-2-ylamine]
34 | > 250 °C | Nc1cccc(-c2ccc(CN3CCCCC3)cc2)n1 (as salt: hydrochloride) [Example 138, 6-(4-Piperidin-1-ylmethyl-phenyl)-pyridin-2-ylamine]
35 | 60 to 70 °C (dec.) | CC(=O)N(CCc1ccc(-c2cccc(N)n2)cc1)C1CCN(Cc2ccccc2)CC1 (as salt: hydrochloride)
36 | 230 °C (dec.) | Nc1cccc(-c2ccc(CCN3CCN(C(=O)C(N)Cc4ccccc4)CC3)cc2)n1 (centres unmarked) (as salt: hydrochloride) [Example 61, 2-Amino-1-(4-{2-[4-(6-amino-pyridin-2-yl)-phenyl]-ethyl}-piperazin-1-yl)-3-phenyl-propan-1-one]
37 | 122 to 125 °C | Cc1ccc(NC(=O)N2CCN(CCc3ccc(-c4cccc(N)n4)cc3)CC2)cc1C [Example 41, 4-{2-[4-(6-Amino-pyridin-2-yl)-phenyl]-ethyl}-piperazine-1carboxylic acid (3,4-dimethyl-phenyl)-amide]
38 | 165 to 167 °C | Nc1cccc(-c2ccc(CCN3CCN(CCc4ccc(F)cc4)CC3)cc2)n1 [Example 53, 6-[4-(2-{4-[2-(4-Fluoro-phenyl)-ethyl]-piperazin-1-yl}-ethyl)-phenyl]-pyridin-2-ylamine]
39 | 174 to 176 °C | CN(C)C1CCN(CCc2ccc(-c3cccc(N)n3)cc2)CC1 [Example 21, 6-{4-[2-(4-Dimethylamino-piperidin-1-yl)-ethyl]-phenyl}-pyridin-2-ylamine]
40 | 88 to 94 °C | Cc1cccc(NC(=O)N2CCN(CCc3ccc(-c4cccc(N)n4)cc3)CC2)c1 [Example 45, 4-{2-[4-(6-Amino-pyridin-2-yl)-phenyl]-ethyl}-piperazine-1-carboxylic acid m-tolyl-amide]
41 | 60 to 70 °C (dec.) | Nc1cccc(-c2ccc(CCNC3Cc4ccccc4C3)cc2)n1 (as salt: hydrochloride) [Example 117, 6-{4-[2-(Indan-2-ylamino)-ethyl]-phenyl}-pyridin-2-ylamine]
